Results taken from paper PMC6680932, “Structure–Antioxidant–Antiproliferative Activity Relationships of Natural C7 and C7–C8 Hydroxylated Flavones and Flavanones” (Antioxidants, 2019).

What was measured:
[1] = Stability of flavonoids before administration to the cell cultures (diluted in RPMI 1640/Opti-MEM medium), HPLC; type: physicochemical; conditions: 100 µg/mL, medium with 2 mM L-glutamine, 5% fetal bovine serum, penicillin, streptomycin; 3 h incubation
Method: Tested compounds were dissolved in DMSO and then diluted in a 1:1 (v/v) mixture of RPMI 1640 (HIIET, PAS, Wroclaw, Poland) and Opti-MEM (Gibco, Scotland, UK) medium supplemented with 2 mM L-glutamine (Sigma-Aldrich, Poznan, Poland), 5% fetal bovine serum (GE Healthcare), 100 units/mL penicillin (Polfa Tarchomin S.A., Warsaw, Poland), and 100 µg/mL streptomycin (Sigma-Aldrich, Poznan, Poland). The antiproliferative effects of the flavonoids were examined after 72 h of exposure of the cultured cells to varying concentrations of the tested agents (from 0.1 to 100 μg/mL) using the MTT (for MV-4-11 cells) or SRB assay described below. Cisplatin (chemotherapy drug used to treat a number of cancers) was used as a positive control. The results are presented as an inhibitory concentration 50 (IC50), which is the concentration of the tested agent that inhibits proliferation of the cell population by 50%. IC50 values for each experiment were calculated separately.
Flavonoids were dissolved (as described in Section 2.4) to the concentration of 100 µg/mL. The solutions corresponding to the solutions before the administration to the cell cultures were incubated in 96-well plates for 3 h and transferred to microtubes containing 400 µL of cold methanol (−20 °C) and kept at −20 °C for 1 h. After centrifugation at 12,000× g for 10 min, samples were analyzed by HPLC. Control experiments were also carried out to determine the stability of flavonoids in DMSO under analogous conditions.

[2] = DPPH free radical scavenging activity assay; conditions: 10 min, 517 nm; mean ± SD
Method: The antioxidant capacity of flavonoids was measured in three separate tests: ABTS, DPPH, and ferric ion reducing antioxidant power (FRAP) assays (ABTS, DPPH, and FRAP reagents from Sigma-Aldrich). All tested compounds were dissolved in DMSO. All determinations were performed in triplicate. Standard curves were prepared for all assays using different concentrations of Trolox (6-hydroxy-2,5,7,8-tetramethylchroman-2-carboxylic acid) (Sigma-Aldrich). Trolox is a water-soluble analogue of vitamin E with high antioxidant activity, commonly used as a control and a reference in studies of antioxidant activity. The results were expressed as the equivalent of μmol Trolox per μmol of the test compound. The absorbance was measured using a UV-2401 PC spectrophotometer (Shimadzu, Kyoto, Japan). Concentrations of the tested samples were in the range from 50 µg/mL to 10 mg/mL.
The DPPH (2,2-diphenyl-1-picrylhydrazyl) radical scavenging activity of samples was determined according to the method described by Yen and Chen with some modifications. Samples (0.1 mL) of known concentration were mixed in polystyrene cuvettes with 2 mL of 0.04 mM DPPH in ethanol and 0.4 mL of ethanol. The absorbance was measured after 10 min at λ = 517 nm. The DPPH reagent was freshly prepared before each experiment.

| SMILES | stability after dilution with 1:1 RPMI 1640/Opti-MEM medium [1] | TEAC DPPH [2] |
| --- | --- | --- |
| O=c1cc(-c2ccc(O)cc2)oc2cc(O)cc(O)c12 [Compound 2, apigenin] | stable | 0.005 ± 0.002 µmol trolox per µmol of tested |
| O=C1C[C@@H](c2ccc(O)cc2)Oc2cc(O)cc(O)c21 [Compound 6, naringenin] | stable | 0.017 ± 0.002 µmol trolox per µmol of tested |
| O=c1cc(-c2ccc(O)cc2)oc2c(O)c(O)cc(O)c12 [Compound 10, 8-hydroxyapigenin] | complete decomposition | 5.560 ± 0.121 µmol trolox per µmol of tested |
